Experimental data: patent US20090081669A1 (ENCODE BIO, INC., priority 2006, published 2009)

Experiments:
CAT-TAG in CHO cells = assay: CAT-TAG expression in transfected CHO cells (FAST CAT assay); type: cell-based; conditions: cells with O-RS/O-tRNA and CAT-TAG, grown in the presence of dansyl-alanine
Source text: We first redesigned the suppressor O-tRNA gene to make it suitable for expression in mammalian cells by altering the 5′ UTR, mutating the promoter regions and generating a tandem repeat, thereby forming SEQ ID NO:6, and subcloned the O-RS gene (SEQ ID NO:12) into a mammalian expression vector. We transformed CHO cells with the plasmids encoding the modified O-RS/O-tRNA genes and a marker gene, Chloramphenicol Acetyltransferase (“CAT”), containing a nonsense TAG codon (“CAT-TAG”). Expression of CAT-TAG was assessed using a fluorescent-based assay (FAST CAT, Invitrogen, Inc.) that measures the conversion of chloramphenicol-BODIPY (FL-CM) to 3-acetyl-chloramphenicol-BODIPY (FL-AcCM) by thin layer chromatography. […] As a positive control, cells were transfected with wildtype CAT cDNA.

yeast strain MaV203 = assay: Rescue of GAL4 (TAG) expression by DANSYL-O-RS/O-tRNA pair, growth in the absence of uracil; type: cell-based; conditions: MaV203 with DANSYL-O-RS, suppressor O-tRNA and GAL4 TAG
Source text: The yeast strain MaV203 was transfected with plasmids coding for the DANSYL-O-RS (SEQ ID NO:12, derived from E. coli), suppressor O-tRNA (SEQ ID NO:5 derived from E. coli) and a marker gene, GAL4, containing nonsense TAG codons. Yeast harboring a functional DANSYL-RSOR and suppressor tRNA OR will “rescue” expression of GAL4. The MAV203 yeast strain contains the URA3 gene (required for uracil biosynthesis) under control of the GAL4 promoter. When grown in the absence of uracil, MAV203 yeast will not grow unless “rescue” of GAL4 expression occurs.

Compound: CN(C)c1cccc2c(S(=O)(=O)NC[C@H](N)C(=O)O)cccc12
- CAT activity of transfected CHO cells (CAT-TAG in CHO cells): expressed significant CAT activity
- growth of transformed yeast in the absence of uracil (yeast strain MaV203): Growth was only observed when the transformed yeast were grown in the presence of dansyl-alanine
